Data reported in patent US20260215425A1, “NITRIFICATION INHIBITORS” (The University of Melbourne, priority 2022, published 2026).

What was measured:
N. europaea = experiment: O2 consumption measurements; format: cell-based; settings: [NH4+] 3 mM, 20° C.
Method: O2 consumption rates of cell suspensions of N. europaea were measured using a Clark-type oxygen electrode (Rank Brothers, Cambridge, UK) mounted in a water-jacketed electrode chamber (3 mL capacity) that was connected to a recirculating cooler (Lauda, Austria). The data were recorded using a Data-trax™ (World Precision Instruments, UK) sensor data collection system. All measurements were taken at 20° C. and 1 mL final reaction solution volume. The polarizing voltage was set to 0.6 V. To calibrate the oxygen signal, an excess (approximately 50 mg) of Na2S2O4 was added to 1 mL of Milli-Q water to chemically remove dissolved O2. […] The voltage at saturated O2 concentration (“100% O2”) was determined by measuring the voltage of the equilibrated aerated reaction system consisting of 1 mL Milli-Q water. Sample measurements were taken as follows: The 1 mL reaction mixture, composed of 980 μL N. europaea cell solution in NaPB (OD600=0.8; corresponding to approximately 468 μg/L protein) was equilibrated for 5 min in the chamber until the voltage reading was stable. […] After 4 min of oxygen consumption (a linear rate coefficient of approximately kobs=k=274.7+20.0 nmol O2 L^−1 s^−1 was determined), 10 μL of the inhibitor stock solution of MPT in DMSO (1.2 mM and 0.6 mM) were added via a 10-μL Eppendorf pipette through a capillary opening, ensuring the emergence of the pipette tip in the solution. […]

soil A = experiment: soil incubation, NH4+ and NO3- in soil A; settings: 21 days
Method: Soils used in these studies were air-dried, ground and sieved (2 mm) prior to use. Soil microcosm incubations were carried out in 250 mL polypropylene specimen containers (Sarstedt, Germany), containing 20 g oven dry-weight equivalent of soil. Microcosms were treated with half the volume of water required to meet the desired water-filled pore space (WFPS %) of 60% and pre-incubated at 25° C. for seven days to revive soil microbial activity. Following pre-incubation, the remaining volume to reach the WFPS % was applied as one of the treatment solutions: (1) fertiliser ((NH4)2SO4,) 100 mg kg^−1, (2) fertiliser+0.5 mol % 4-MPT, (3) fertiliser+2.5 mol % 4-MPT, (4) fertiliser+5 mol % 4-MPT or (5) fertiliser+5 mol % compound 1, with three replicates of each treatment per time interval (n=3). Throughout the incubation period soil microcosms were kept aerated by removing the lid for 10 minutes every 2-3 days to allow gas exchange, and moisture levels were replenished via addition of Milli-Q water as required. At the end of the desired incubation period (i.e., after 0, 3, 7, 14, and 21 days, respectively), soil microcosms were removed and destructively sampled by treating with 2 M aqueous potassium chloride solution (KCl, 100 mL) and shaking for 1 h. Soil-KCl solutions were filtered (Whatman No. 42), and the filtrates were stored at −20° C. until the conclusion of the experiment, when all KCl extracts were analysed for the concentration of soil mineral nitrogen from ammonium (NH4^+—N) and from nitrate (NO3^−—N; the conversion of NO2 to NO3^− in soils is very rapid) after appropriate dilutions using Segmented Flow Analysis (San++, Skalar, Breda, The Netherlands). Results are reported as the mean of three replicates, errors reported are standard errors of the mean. Errors associated with raw data were carried through calculations using standard error propagation protocols.
To determine the nitrification inhibitory effect of 4-MPT in vivo, soil incubations were performed by measuring concentration-time profiles for NH4^+ and NO3^− in an acidic Australian soil (soil A, pH=5.9) over 21 days. 4-MPT was tested at three different concentrations (0.5 mol %, 2.5 mol % and 5 mol % of applied fertiliser-N) and compared with the alkyl-substituted compound 1 (5 mol % of applied fertiliser-N) to confirm the requirement of the N-propargyl substitutent for inhibitory activity (FIG. 5).

C#CCn1cc(C)nn1 [Compound 4-MPT, 4-Methyl-1-(prop-2-yn-1yl)-1H-1,2,3-triazole]
observed rate coefficient kobs for the O2 consumption (N. europaea; [MPT]=0.6 mM): 0.0027 s⁻¹
observed rate coefficient kobs for the O2 consumption (N. europaea; [MPT]=1.2 mM): 0.0045 s⁻¹
NH4+ loss / conversion in soil (soil A; 0.5 mol % of applied fertiliser-N): noticeably delayed NH4^+ loss within the first 15 days
NH4+ loss / conversion in soil (soil A; 2.5 mol % of applied fertiliser-N): quantitatively suppress NH4^+ conversion
NH4+ loss / conversion in soil (soil A; 5 mol % of applied fertiliser-N): quantitatively suppress NH4^+ conversion
